Results as given in patent publication US20240299395A1, “COMBINATION THERAPIES COMPRISING WEE1 INHIBITORS AND DNA DAMAGE RESPONSE (DDR) INHIBITORS” (Recurium IP Holdings, LLC, priority 2021, published 2024).
Where two headings read alike, the source gives them in different places.

How the values were obtained:
Type in all cases: cell-based
[1] = system: MDA-MB-231 (TNBC) cell line; assay: CellTiter-Glo (CTG) cell viability, MDA-MB-231; details: for single agent activity (figure legend): MDA-MB-231, FIGS. 1-2, 72 h
Experimental: (§1) 20,000 MDA-MB-231 cells were incubated in a 96 well plate as a triplicate with 500 nM of ZN-c3 and 10 nM of CHK inhibitor or 700 nM of ATR inhibitor as a single agent or the combination of both for 72 h. 20,000 H23 cells were incubated in a 96 well plate as a triplicate with 150 nM of ZN-c3 and 5 nM of CHK inhibitor or 500 nM of ATR inhibitor as a single agent or the combination of both for 72 h. 10,000 MV4-11 cells were incubated in a 96 well plate as a triplicate with 400 nM of ZN-c3 and 2 nM of CHK inhibitor or 2000 nM of ATM inhibitor as a single agent or the combination of both for 72 h. 20,000 THP-1 cells were incubated in a 96 well plate as a triplicate with 600 nM of ZN-c3 and 4 nM of CHK inhibitor or 1000 nM of ATR inhibitor as a single agent or the combination of both for 72 h. 10,000 HL-60 cells were incubated in a 96 well plate as a triplicate with 750 nM of ZN-c3 and 15 nM of CHK inhibitor or 2000 nM of ATM inhibitor as a single agent or the combination of both for 72 h. 10,000 LNCaP cells were incubated in a 96 well plate as a triplicate with 500 nM of ZN-c3 and 10 nM of CHK inhibitor or 1000 nM of ATM inhibitor as a single agent or the combination of both for 72 h. For each cell line, the cell viability was assessed using a CellTiter-Glo® (CTG) assay.

[2] = system: H23 (NSCLC) cell line; assay: CellTiter-Glo (CTG) cell viability, H23; details: for single agent activity (figure legend): H23, FIGS. 3-4, 72 h
Experimental: as §1

[3] = system: HL-60 (AML) cell line; assay: CellTiter-Glo (CTG) cell viability, HL-60; details: for single agent activity (figure legend): HL-60, FIGS. 9-11, 72 h
Experimental: as §1
(§2) 10,000 MV4-11 cells were incubated in a 96 well plate as a triplicate with 2 nM of ZN-d5, 400 nM of ZN-c3 and 2 nM of CHK inhibitor or 2000 nM of ATM inhibitor or 150 nM of ATR inhibitor as a single, double or triple combination for 72 h. 20,000 THP-1 cells were incubated in a 96 well plate as a triplicate with 100 nM of ZN-d5, 600 nM of ZN-c3 and 4 nM of CHK inhibitor or 1000 nM of ATM inhibitor or 1000 nM of ATR inhibitor as a single, double or triple combination for 72 h. 10,000 HL-60 cells were incubated in a 96 well plate as a triplicate with 75 nM of ZN-d5, 750 nM of ZN-c3 and 15 nM of CHK inhibitor or 2000 nM of ATM inhibitor or 1000 nM of ATR inhibitor as a single, double or triple combination for 72 h. For each cell line, the cell viability was assessed using a CellTiter-Glo® (CTG) assay.

[4] = system: THP-1 (AML) cell line; assay: CellTiter-Glo (CTG) cell viability, THP-1; details: for single agent activity (figure legend): THP-1, FIGS. 7-8, 72 h
Experimental: as §1, §2

[5] = system: MV4-11 (AML) cell line; assay: CellTiter-Glo (CTG) cell viability, MV4-11; details: for single agent activity (figure legend): MV4-11, FIGS. 5-6, 72 h
Experimental: as §1, §2

[6] = system: LNCaP (Prostate) cell line; assay: CellTiter-Glo (CTG) cell viability, LNCaP; details: for single agent activity (figure legend): FIGS. 12-13, 72 h
Experimental: as §1

[7] = Table 1, 500 nM ZN-c3, 10 nM CHK inhibitor, single agent or combination, 72 h
[8] = Table 1, 150 nM ZN-c3, 5 nM CHK inhibitor, single agent or combination, 72 h
[9] = Table 4, 75 nM ZN-d5, 750 nM ZN-c3, 15 nM CHK inhibitor, 2000 nM ATM inhibitor, 1000 nM ATR inhibitor, single, double or triple combination, 72 h
[10] = Table 4, 100 nM ZN-d5, 600 nM ZN-c3, 4 nM CHK inhibitor, 1000 nM ATM inhibitor, 1000 nM ATR inhibitor, single, double or triple combination, 72 h
[11] = Table 4, 2 nM ZN-d5, 400 nM ZN-c3, 2 nM CHK inhibitor, 2000 nM ATM inhibitor, 150 nM ATR inhibitor, single, double or triple combination, 72 h
[12] = Homo sapiens, HL-60, 72 h, Table 4, 75 nM ZN-d5, 750 nM ZN-c3, 15 nM CHK inhibitor, 2000 nM ATM inhibitor, 1000 nM ATR inhibitor, single, double or triple combination, 72 h, read-out: HL60 % Inhibition
[13] = Homo sapiens, THP-1, 72 h, Table 4, 100 nM ZN-d5, 600 nM ZN-c3, 4 nM CHK inhibitor, 1000 nM ATM inhibitor, 1000 nM ATR inhibitor, single, double or triple combination, 72 h
[14] = Homo sapiens, MV4-11, 72 h, Table 4, 2 nM ZN-d5, 400 nM ZN-c3, 2 nM CHK inhibitor, 2000 nM ATM inhibitor, 150 nM ATR inhibitor, single, double or triple combination, 72 h

SMILES: COc1cccc(OCCCN)c1-c1cc(Nc2cnc(C#N)cn2)n[nH]1 [CHKi, Prexasertib]
- single agent activity (figure legend) [1]: single agent activity was observed
- MDA-MB-231 % Inhibition [1, 7]: 26%
- single agent activity (figure legend) [2]: practically no activity
- H23 % Inhibition [2, 8]: 1%
- single agent activity (figure legend) [3]: no activity
- HL60 % Inhibition ([3]; Table 1, 750 nM ZN-c3, 15 nM CHK inhibitor, single agent or combination, 72 h): 0%
- HL60 % Inhibition [3, 9]: 0%
- THP % Inhibition ([4]; Table 1, 600 nM ZN-c3, 4 nM CHK inhibitor, single agent or combination, 72 h): 32%
- THP % Inhibition [4, 10]: 32.29%
- single agent activity (figure legend) [5]: no activity
- MV4; 11 % Inhibition ([5]; Table 1, 400 nM ZN-c3, 2 nM CHK inhibitor, single agent or combination, 72 h): 0%
- MV4; 11 % Inhibition [5, 11]: 0%
- single agent activity (figure legend) ([6]; LNCaP): single agent activity was observed
- LNCaP % Inhibition [6, 7]: 14%

SMILES: CNCc1ccc(-c2cc(-c3nc(-c4ccc(S(=O)(=O)C(C)C)cc4)cnc3N)on2)cc1 [ATRi, Berzosertib]
- single agent activity (figure legend) [1]: single agent activity was observed
- MDA-MB-231 % Inhibition ([1]; Table 2, 500 nM ZN-c3, 700 nM ATR inhibitor, single agent or combination, 72 h): 33%
- single agent activity (figure legend) [2]: single agent activity was observed
- H23 % Inhibition ([2]; Table 2, 150 nM ZN-c3, 500 nM ATR inhibitor, single agent or combination, 72 h): 35%
- single agent activity (figure legend) [3]: single agent activity was observed
- inhibition at 1 µM ([3]; Homo sapiens, HL-60, 72 h, Table 2, 750 nM ZN-c3, ATR inhibitor (1000 nM), single agent or combination, 72 h, read-out: HL60 % Inhibition): 15%
- HL60 % Inhibition [3, 9]: 15.91%
- THP % Inhibition ([4]; Table 2, 600 nM ZN-c3, 1000 nM ATR inhibitor, single agent or combination, 72 h): 37%
- THP % Inhibition [4, 10]: 36.93%
- MV4; 11 % Inhibition [5, 11]: 13.99%

SMILES: CN(C)CCCOc1ccc(-c2ccc3ncc4c(c3c2)n(C2CCOCC2)c(=O)n4C)cn1 [ATMi, AZD0156]
- single agent activity (figure legend) [3]: practically no activity
- HL60 % Inhibition ([3]; Table 3, 750 nM ZN-c3, 2000 nM ATM inhibitor, single agent or combination, 72 h): 3%
- HL60 % Inhibition [3, 9]: 2.95%
- single agent activity (figure legend) [4]: single agent activity was observed
- THP % Inhibition [4, 10]: 19.52%
- single agent activity (figure legend) [5]: single agent activity was observed
- MV4; 11 % Inhibition ([5]; Table 3, 400 nM ZN-c3, 2000 nM ATM inhibitor, single agent or combination, 72 h): 18%
- MV4; 11 % Inhibition [5, 11]: 18.48%
- single agent activity (figure legend) ([6]; LNCaP): single agent activity was observed
- LNCaP % Inhibition ([6]; Table 3, 500 nM ZN-c3, 1000 nM ATM inhibitor, single agent or combination, 72 h): 14%

SMILES: C=CCn1c(=O)c2cnc(Nc3ccc(N4CCN(C)CC4)cc3)nc2n1-c1ccc2c(n1)[C@@](O)(CC)CC2 [ZN-c3]
- inhibition at 0.5 µM ([1]; Homo sapiens, MDA-MB-231, Table 1, 500 nM ZN-c3, 10 nM CHK inhibitor, single agent or combination, 72 h): 35%
- single agent activity (figure legend) [1]: single agent activity was observed
- single agent activity (figure legend) [2]: single agent activity was observed
- inhibition at 0.15 µM [2, 8]: 22%
- single agent activity (figure legend) [3]: single agent activity was observed
- inhibition at 0.75 µM ([3]; Homo sapiens, HL-60, 72 h, Table 1, 750 nM ZN-c3, 15 nM CHK inhibitor, single agent or combination, 72 h, read-out: HL60 % Inhibition): 25%
- inhibition at 0.75 µM ([3]; Homo sapiens, HL-60, 72 h, Table 3, 750 nM ZN-c3, 2000 nM ATM inhibitor, single agent or combination, 72 h, read-out: HL60 % Inhibition): 25%
- inhibition at 0.75 µM [3, 12]: 25.5%
- inhibition at 0.6 µM ([4]; Homo sapiens, THP-1, 72 h, Table 1, 600 nM ZN-c3, 4 nM CHK inhibitor, single agent or combination, 72 h): 18%
- inhibition at 0.6 µM ([4]; Homo sapiens, THP-1, 72 h, Table 2, 600 nM ZN-c3, 1000 nM ATR inhibitor, single agent or combination, 72 h): 18%
- inhibition at 0.6 µM [4, 13]: 18.1%
- single agent activity (figure legend) [4]: single agent activity was observed
- inhibition at 0.4 µM ([5]; Homo sapiens, MV4-11, 72 h, Table 1, 400 nM ZN-c3, 2 nM CHK inhibitor, single agent or combination, 72 h): 49%
- inhibition at 0.4 µM ([5]; Homo sapiens, MV4-11, 72 h, Table 3, 400 nM ZN-c3, 2000 nM ATM inhibitor, single agent or combination, 72 h): 49%
- inhibition at 0.4 µM [5, 14]: 49.2%
- single agent activity (figure legend) [5]: single agent activity was observed
- inhibition at 0.5 µM ([6]; Homo sapiens, LNCaP, Table 1, 500 nM ZN-c3, 10 nM CHK inhibitor, single agent or combination, 72 h): 24%
- single agent activity (figure legend) ([6]; LNCaP): single agent activity was observed

SMILES: CC1(C)CCC(CN2CCN(c3ccc(C(=O)NS(=O)(=O)c4ccc(NC[C@H]5CC[C@](C)(O)CC5)c([N+](=O)[O-])c4)c(Oc4cnc5[nH]ccc5c4)c3)CC2)=C(C23CC(C(F)F)(C2)C3)C1 [ZN-d5, 2-((1H-pyrrolo[2,3-b]pyridin-5-yl)oxy)-4-(4-((2-(3-(difluoromethyl)bicyclo[1.1.1]pentan-1-yl)-4,4-dimethylcyclohex-1-en-1-yl)methyl)piperazin-1-yl)-N-((4-((((1r,4r)-4-hydroxy-4-methylcyclohexyl)methyl)amino)-3-nitrophenyl)sulfonyl)benzamide]
- inhibition at 0.075 µM [3, 12]: 37.6%
- inhibition at 0.1 µM [4, 13]: 2.6%
- inhibition at 0.002 µM [5, 14]: 8.44%
